From patent US20250375456A1, “AGENT FOR PREVENTING OR TREATING RESPIRATORY DISEASE” (Nippon Chemiphar Co., Ltd., priority 2021, published 2025)
One block for each compound: values may come before it.

Key:
Format in all cases: in vivo, guinea pig
[1] = tested on: cigarette smoke-exposed guinea pigs; experiment: Measurement of respiratory function (double flow plethysmography) in cigarette smoke-exposed model
Text: (§1) Male Hartley guinea pigs (manufactured by Japan SLC, Inc., Slc: Hartley, SPF) were used in the test. The guinea pigs were purchased at 5 weeks old. The weights at the time of the purchase were about 300 to 350 g. After arrival, the guinea pigs were provided with an acclimation period of 9 days, including the day of receipt. During the above period, the clinical symptoms of the animals were observed once a day. In addition, on the last day of the acclimation period, the animals were weighed and the health status was measured. It was confirmed that there were no abnormal clinical signs or […] in any of the animals. Body weights on the last day of the acclimation (that is, at the beginning of exposure to cigarette smoke) were about 390 to 450 g.
(§2) Experimental animals were prepared with reference to Non Patent Literature 2. Specifically, guinea pigs exposed to cigarette smoke using a smoking exposure system (INH06-CIG01A, INH06-CIG02, M.I.P.S. Inc.) were used in the experiment. Each guinea pig was placed in an exposure holder (one per cage), and the holder was secured in the exposure chamber. The animals were exposed to the smoke of 30 cigarette per day, 5 days a week, for 4 weeks, the smoke being generated by a mainstream smoke generator. In the fourth week, the exposure was for 4 days (smoking period was from […]). As for the cigarettes, Peace (no filter, tar: 28 mg, nicotine: 2.3 mg, Japan Tobacco Inc., Peace is a registered trademark of Japan Tobacco Inc.) was used.
Unless otherwise specified, various evaluations were performed on the day after the last cigarette smoke-exposure in the second week (Day 13) and the day after the last cigarette smoke-exposure (Day 26).
The solvent of Compound A was used as the placebo of the control group.
(§3) The placebo and each drug were administered by forced oral administration into the stomach using a disposable syringe equipped with a gastric catheter. As for the administration frequency, repetitive administration was performed once a day for 25 days from Day 1 to Day 25. The administration time was 1 hour (±5 minutes) before the cigarette smoke-exposure. The dose was 5 mL/kg. The actual amount of each drug administered to each guinea pig was calculated based on the most recent weight.
Respiratory function in conscious guinea pigs was measured by double flow plethysmography using a respiratory function measurement system (Pulmos-I, M.I.P.S Inc.). The measurement parameters were specific airway resistance (sRaw), tidal volume (TV), respiratory rate (RR), minute volume (MV), and peak expiratory flow (PEF). The average value of the measurement values obtained with 100 breaths was considered as the measurement value for each measurement day.

[2] = tested on: cigarette smoke-exposed guinea pigs; experiment: Measurement of citric acid-induced cough reflex in cigarette smoke-exposed model; settings: for mean number of cough reflexes: Day 20 or 21, 2 hours after administration, 0.1 mol/L citric acid, 15 minutes
Text: as §1, §2, §3
Measurements were performed 1 day or 2 days after the last cigarette smoke exposure during Week 3 (Day 20 or Day 21).
The measurements were performed 2 hours after the administration of the placebo or various drugs.
The guinea pigs were placed in the inhalation chamber of the respiratory function measurement system (Pulmos-I, M.I.P.S. Co.). Cough reflex was induced by inhaling citric acid (lot no. M8K7523, manufactured by NACALAI TESQUE, INC.) for 3 minutes from the front side of the chamber using an ultrasonic nebulizer. […] The presence or absence of a cough reflex was determined from the sound during the cough reflex, the movement of the animal, and the respiratory function. Before the measurement on the day of the administration, the animals were placed in the chamber for 15 minutes or longer to acclimatize to the experimental environment. Note that the respiratory function (respiratory rate (RR), tidal volume (TV), peak expiratory flow (PEF), and minute volume (MV)) was measured immediately before the citric acid inhalation. The respiratory function was measured by the body side sensor of the respiratory function measurement system.

[3] = Measurement of weights in cigarette smoke-exposed model; settings: Day 1 to Day 26; Compound A 3, 10, 30 mg/kg, gefapixant 10 mg/kg, oral once a day
Text: as §1
Experimental animals were prepared with reference to Non Patent Literature 2. Specifically, guinea pigs exposed to cigarette smoke using a smoking exposure system (INH06-CIG01A, INH06-CIG02, M.I.P.S. Inc.) were used in the experiment. […]
The placebo and each drug were administered by forced oral administration into the stomach using a disposable syringe equipped with a gastric catheter. […] The actual amount of each drug administered to each guinea pig was calculated based on the most recent weight.
The weights were measured with an electronic balance (MSA4202S, Sartorius Japan K.K.) before the research operation on Days 1, 8, 15, 22, and 26.

[4] = tested on: cigarette smoke-exposed guinea pigs; experiment: Number of cells in bronchoalveolar lavage fluid (BALF) in cigarette smoke-exposed model
Text: as §1, §2, §3
The measurement was performed after the day after the last cigarette smoke exposure (Day 26).
After sacrificing the guinea pigs by bleeding under anesthesia, bronchoalveolar lavage fluid (BALF) was collected according to the following operating procedure.
(1) After ligating the left main bronchus with a thread, a cannula was inserted into the trachea and fixed.
(2) 5 mL of saline was injected into the right lung through the cannula, and the lavage fluid was collected by gentle suctioning. BALF was collected by repeating this procedure twice (a total of 10 mL).
The pellet was suspended in 1 mL of saline, and the number of WBCs were counted using an automated hematology analyzer with a BALF analysis area (XT-2000iV, Sysmex Corporation). The counting was performed by adjusting the smear preparation. The smear preparation was performed by centrifuging the cell suspension again and suspending the obtained pellet in 75% FBS (fetal bovine serum and saline). After drying, the smear preparation was Wright-Giemsa stained.
The percentages of neutrophils, macrophages, eosinophil, and lymphocytes with respect to total WBCs were obtained, and the numbers of the cells per 1 μL were calculated.

[5] = Day 13, 10 mg/kg oral once a day
[6] = Day 26, 10 mg/kg oral once a day
[7] = Day 26, high-dose group 30 mg/kg oral
[8] = Day 26, low-dose group 3 mg/kg oral
[9] = Day 26, medium-dose group 10 mg/kg oral

- weight changes compared to the control (placebo) group [3]: comparable
SMILES: COc1cc(C(C)C)c(Oc2cnc(N)nc2N)cc1S(N)(=O)=O [Gefapixant, reference compound]
- effect on the respiratory function ([1]; 10 mg/kg oral): did not have a significant effect
- specific airway resistance (sRaw) [1, 5]: 1.675 cmH2O·sec
- sRaw compared to the control (placebo) group ([1]; Day 13 and Day 26, 10 mg/kg oral): no significant difference
- specific airway resistance (sRaw) [1, 6]: 2.066 cmH2O·sec
- number of cough reflexes compared to the control (placebo) group ([2]; 10 mg/kg oral): no significant difference
- mean number of cough reflexes ([2]; 10 mg/kg oral): 4.5
- effect on the changes in the number of cells in BALF ([4]; 10 mg/kg oral): did not have an effect
- mean number of macrophages in BALF ([4]; Day 26, 10 mg/kg oral): 24.4 ×10^2 cells/μL
- mean number of total WBCs in BALF ([4]; Day 26, 10 mg/kg oral): 40.0 ×10^2 cells/μL
- number of macrophages compared to the control (placebo) group ([4]; Day 26, 10 mg/kg oral): no significant different
- total number of WBCs compared to the control (placebo) group ([4]; Day 26, 10 mg/kg oral): no significant different

SMILES: O=C1CC(=O)N(c2ccc(NC(=O)c3ccccc3I)cc2)c2ccc3ccccc3c2N1 [Compound B48, 5-[4-(2-iodobenzoylamino)phenyl]-1H-naphtho[1,2-b][1,4]diazepine-2,4(3H,5H)-dione]
- minute volume (MV), dose dependence ([1]; 3, 10, 30 mg/kg oral): tendency of increasing in a dose-dependent manner
- peak expiratory flow (PEF), dose dependence ([1]; 3, 10, 30 mg/kg oral): tendency of increasing in a dose-dependent manner
- tidal volume (TV), dose dependence ([1]; 3, 10, 30 mg/kg oral): tendency of increasing in a dose-dependent manner
- sRaw, dose dependence ([1]; 3, 10, 30 mg/kg oral, Day 13 and Day 26): decreased in a dose-dependent manner
- specific airway resistance (sRaw) [1, 5]: 1.711 cmH2O·sec
- specific airway resistance (sRaw) ([1]; Day 13, high-dose group 30 mg/kg oral once a day): 1.556 cmH2O·sec
- sRaw compared to the control (placebo) group ([1]; Day 13, high-dose group 30 mg/kg oral, P<0.05): significant decrease
- specific airway resistance (sRaw) ([1]; Day 13, low-dose group 3 mg/kg oral once a day): 1.755 cmH2O·sec
- specific airway resistance (sRaw) [1, 6]: 2.017 cmH2O·sec
- respiratory rate (RR), dose dependence ([1]; Day 26, 3, 10, 30 mg/kg oral): tendency of decreasing in a dose-dependent manner
- specific airway resistance (sRaw) ([1]; Day 26, high-dose group 30 mg/kg oral once a day): 1.994 cmH2O·sec
- specific airway resistance (sRaw) ([1]; Day 26, low-dose group 3 mg/kg oral once a day): 2.105 cmH2O·sec
- PEF compared to the control (placebo) group ([1]; all Compound A groups (3, 10, 30 mg/kg)): higher
- MV compared to the control (placebo) group ([1]; medium-dose group (10 mg/kg) and high-dose group (30 mg/kg)): higher
- number of cough reflexes compared to the control (placebo) group ([2]; 10 mg/kg oral): no significant difference
- mean number of cough reflexes ([2]; 10 mg/kg oral): 6.9
- number of cough reflexes compared to the control (placebo) group ([2]; high-dose group 30 mg/kg oral): tendency of suppressing the cough reflex
- mean number of cough reflexes ([2]; high-dose group 30 mg/kg oral): 3.6
- number of cough reflexes compared to the control (placebo) group ([2]; low-dose group 3 mg/kg oral): no significant difference
- mean number of cough reflexes ([2]; low-dose group 3 mg/kg oral): 6.0
- weight changes compared to the control (placebo) group [3]: comparable
- mean number of macrophages in BALF ([4]; Day 26, 10 mg/kg oral): 20.2 ×10^2 cells/μL
- mean number of total WBCs in BALF ([4]; Day 26, 10 mg/kg oral): 30.1 ×10^2 cells/μL
- macrophages, dose dependence ([4]; Day 26, 3, 10, 30 mg/kg oral): smaller than that in the control (placebo) group in a dose-dependent manner
- neutrophils, dose dependence ([4]; Day 26, 3, 10, 30 mg/kg oral): tendency of decreasing in a dose-dependent manner
- number of eosinophils compared to the control (placebo) group ([4]; Day 26, 3, 10, 30 mg/kg oral): no significant difference
- number of lymphocytes compared to the control (placebo) group ([4]; Day 26, 3, 10, 30 mg/kg oral): no significant difference
- total WBCs, dose dependence ([4]; Day 26, 3, 10, 30 mg/kg oral): smaller than that in the control (placebo) group in a dose-dependent manner
- mean number of eosinophils in BALF [4, 7]: 5.6 ×10^2 cells/μL
- mean number of lymphocytes in BALF [4, 7]: 1.0 ×10^2 cells/μL
- mean number of macrophages in BALF [4, 7]: 12.0 ×10^2 cells/μL
- mean number of neutrophils in BALF [4, 7]: 2.3 ×10^2 cells/μL
- mean number of total WBCs in BALF [4, 7]: 20.9 ×10^2 cells/μL
- number of macrophages compared to the control (placebo) group [4, 7]: significantly suppressed
- total number of WBCs compared to the control (placebo) group [4, 7]: significantly suppressed
- mean number of eosinophils in BALF [4, 8]: 4.8 ×10^2 cells/μL
- mean number of lymphocytes in BALF [4, 8]: 1.1 ×10^2 cells/μL
- mean number of macrophages in BALF [4, 8]: 25.0 ×10^2 cells/μL
- mean number of neutrophils in BALF [4, 8]: 3.1 ×10^2 cells/μL
- mean number of total WBCs in BALF [4, 8]: 33.9 ×10^2 cells/μL
- mean number of eosinophils in BALF [4, 9]: 6.1 ×10^2 cells/μL
- mean number of lymphocytes in BALF [4, 9]: 1.2 ×10^2 cells/μL
- mean number of neutrophils in BALF [4, 9]: 2.5 ×10^2 cells/μL
